# In patent publication US8399689B2, “Chrysophaentin antimicrobial compounds that inhibit FtsZ protein” (The United States of America, as represented by the …, priority 2010, dated 2013):
# Read-outs that look alike come from different tables or passages of the source.
# Experiments:
# [1] = tested on: vancomycin-resistant E. Faecium (VRE, ATCC 700221); test: Agar disk diffusion assay, VREF; assay type: cell-based, Enterococcus faecium; conditions: Lowest concentrations leading to 8-10 mm zones of inhibition
# Experimental: (§1) Compounds 1-8 were tested for antimicrobial activity against Staphylococcus aureus (SA, ATCC 25923), methicillin-resistant S. aureus (MRSA, ATCC BAA-41), multidrug-resistant S. aureus (MDRSA, ATCC BAA-44), Enterococcus faecium (EF, ATCC 49032), vancomycin-resistant E. Faecium (VRE, ATCC 700221), and Bacillus subtilis (ATCC 49343) using a modified disk diffusion assay and microbroth liquid dilution assays. For disk diffusion assays, agar plates seeded with suspensions of bacteria were prepared by adding 500 μL of a 24 h culture of bacteria to 100 mL of autoclaved Mueller Hinton II agar and cooled to 55° C. Seeded liquid agar (10 mL) was transferred immediately to square Petri dishes and allowed to cool for 1 h. Control drugs used for each microorganism included kanamycin (50 μg) for S. aureus, and nitrofurantoin (25 μg) for MRSA. Following incubation at 37° C. for 18 h, zones of inhibition were measured. MICso values for compounds 1 and 4-8 were determined using a microbroth dilution assay outlined in the Clinical and Laboratory Standards Institute methods for susceptibility tests for bacteria that grow aerobically. Briefly, single bacterial colonies were used to inoculate 4 mL of Trypticase Soy broth (BD) for overnight growth and inoculum for each were diluted to 5×10^5 CFU/mL using the 0.5 McFarland standard. In a 96 well plate (Costar, round bottom), control antibiotics (oxacillin for SA and MRSA, vancomycin for EF and VRE, chloramphenicol for B. subtilis) or natural product inhibitors were added to Muller Hinton II broth (for S. aureus, MRSA, and B. subtilis) or 10% brain heart infusion broth (for E. faecium and VRE) in the first column of the well plates, and serially diluted across the plate, reserving wells for a positive growth control (no treatment). 10 μL of diluted bacteria were added to all wells with the exception of those kept for broth blanks (MHII or brain heart infusion broth only). Plates were incubated at 37° C. overnight and read at absorbance 600 nm on a Molecular Devices plate reader. Growth curves were plotted and ICso values obtained using Kalidagraph software.
# [2] = tested on: Staphylococcus aureus (SA, ATCC 25923); test: Agar disk diffusion assay, S. aureus; assay type: cell-based; conditions: Lowest concentrations leading to 8-10 mm zones of inhibition
# Experimental: as §1
# [3] = tested on: methicillin-resistant S. aureus (MRSA, ATCC BAA-41); test: Microbroth dilution assay, MRSA; assay type: cell-based, Staphylococcus aureus; conditions: for MIC50: Staphylococcus aureus, read-out: MIC50 (μg/mL) MRSA
# Experimental: as §1
# [4] = tested on: Enterococcus faecium (EF, ATCC 49032); test: Microbroth dilution assay, E. faecium; assay type: cell-based; conditions: concentration at which growth is reduced by 50%; for MIC50: Enterococcus faecium, ATCC49032, microbroth dilution, read-out: MIC50 (μg/mL) E. faecium
# Experimental: as §1
# [5] = tested on: vancomycin-resistant E. Faecium (VRE, ATCC 700221); test: Microbroth dilution assay, VREF; assay type: cell-based, Enterococcus faecium; conditions: for MIC50: Enterococcus faecium, read-out: MIC50 (μg/mL) VREF
# Experimental: as §1
# [6] = tested on: Enterococcus faecium (EF, ATCC 49032); test: Agar disk diffusion assay, E. faecium; assay type: cell-based; conditions: Lowest concentrations leading to 8-10 mm zones of inhibition
# Experimental: as §1
# [7] = tested on: Gram-positive pathogens (S. aureus, B. subtilis, E. faecium, MRSA, MDRSA, VREF); test: Disk diffusion and microbroth dilution assays, strains taken together; assay type: cell-based
# Source text: Solid agar disk diffusion and microbroth dilution assays were used to evaluate the antimicrobial activities of compounds 1, hexaacetate 1a, and 4-8 toward clinically relevant, Gram-positive pathogens, including the drug-susceptible bacteria Staphylococcus aureus, Bacillus subtilis and Enterococcus faecium, and drug-resistant strains methicillin-resistant S. aureus (MRSA), multidrug-resistant S. aureus (MDRSA), and vancomycin-resistant E. faecium (VREF) (see Table 7, Example 2).
# as §1, with “In a 96 well plate (Costar, round bottom), control antibiotics (oxacillin for SA and MRSA, vancomycin for EF and VRE, chloramphenicol for B. subtilis) or natural product inhibitors were added to Muller Hinton II broth (for S. aureus, MRSA, and B. subtilis) or 10% brain heart infusion broth (for E. faecium and VRE) in the first column of the well plates, and serially diluted across the plate, reserving wells for a positive growth control (no treatment). 10 μL of diluted bacteria were added to all wells with the exception of those kept for broth blanks (MHII or brain heart infusion broth only).” left out, “Growth curves were plotted and ICso values obtained using Kalidagraph software.” left out
# [8] = tested on: Staphylococcus aureus (SA, ATCC 25923); test: Microbroth dilution assay, S. aureus; assay type: cell-based; conditions: for MIC50: Staphylococcus aureus
# Experimental: as §1
# [9] = tested on: methicillin-resistant S. aureus (MRSA, ATCC BAA-41); test: Agar disk diffusion assay, MRSA; assay type: cell-based, Staphylococcus aureus; conditions: Lowest concentrations leading to 8-10 mm zones of inhibition
# Experimental: as §1
# [10] = tested on: tubulin; test: Tubulin polymerization assay; assay type: biochemical; conditions: chrysophaentin 1 at 150 μM; paclitaxel, nocodazole at standardized concentrations
# [11] = microbroth dilution, concentration at which growth is reduced by 50%
# [12] = ATCC25923, microbroth dilution, concentration at which growth is reduced by 50%, read-out: MIC50 (μg/mL) S. aureus
# [13] = ATCC25923, read-out: MIC50 (μg/mL) S. aureus
SMILES,Agar disk diffusion (μg/disk) VREF [1],Agar disk diffusion (μg/disk) S. aureus [2],"MIC50 [3, 11]",MIC50 [4],"MIC50 [5, 11]",Agar disk diffusion (μg/disk) E. faecium [6],fold change in MIC50 versus chrysophaentin 1 ([7]; all four strains),"MIC50 [8, 12]",Agar disk diffusion (μg/disk) MRSA [9],MIC50 (μg/mL) E. faecium ([4]; microbroth dilution),"MIC50 (μg/mL) VREF [5, 11]","MIC50 [8, 13]","MIC50 (μg/mL) MRSA [3, 11]",potency relative to compound 7 [7],"MIC50 (μg/mL) S. aureus [8, 11]",MIC50 [3],MIC50 [5],tubulin polymerization velocity v [10]
"Oc1cc(O)c2c(c1)C/C(Cl)=C\Cc1cc(c(Br)cc1O)Oc1c(O)cc(cc1O)C/C(Cl)=C\Cc1cc(c(Br)cc1O)O2 [Compound 4, chrysophaentin 4]",25 μg/disk,25 μg/disk,19 ± 5.9 µg/mL,> 50 µg/mL,> 25 µg/mL,25 μg/disk,~12 fold,> 25 µg/mL,25 μg/disk,–,–,–,–,–,–,–,–,–
"Oc1cc(O)cc(C/C(Cl)=C\Cc2cc(Oc3c(O)cc(C/C(Cl)=C\Cc4cc(O)c(Cl)cc4O)cc3O)c(Cl)cc2O)c1 [Compound 5, chrysophaentin 5]",25 μg/disk,25 μg/disk,8.9 ± 2.8 µg/mL,> 25 µg/mL,> 25 µg/mL,25 μg/disk,–,–,10 μg/disk,>25 µg/mL,>25 µg/mL,10.5 ± 3.8 µg/mL,–,–,–,–,–,–
"Oc1cc(Cl)c2cc1C/C=C(/Cl)Cc1cc(O)c(c(O)c1)Oc1cc(c(O)cc1Cl)C/C=C(/Cl)Cc1cc(O)c(c(O)c1)O2 [Compound 6, chrysophaentin 6]",10 μg/disk,10 μg/disk,4 to 6 µg/mL,> 25 µg/mL,~9.5 µg/mL,10 μg/disk,–,4 to 6 µg/mL,10 μg/disk,–,9.5 ± 3.0 µg/mL,–,4.2 ± 1.2 µg/mL,at least 3 ×,5.3 ± 1.9 µg/mL,–,–,–
"Oc1cc(Cl)c2cc1C/C=C(/Cl)Cc1cc(O)c(c(O)c1)Oc1cc(c(O)cc1Br)C/C=C(/Cl)Cc1cc(O)c(c(O)c1)O2 [Compound 7, chrysophaentin 7]","NA (NA, no zone of inhibition observed at 25 μg/disk)","NA (NA, no zone of inhibition observed at 25 μg/disk)",–,> 50 µg/mL,–,"NA (NA, no zone of inhibition observed at 25 μg/disk)",–,–,"NA (NA, no zone of inhibition observed at 25 μg/disk)",–,–,16.6 ± 5.3 µg/mL,–,–,–,12.3 ± 3.1 µg/mL,24.6 ± 7.3 µg/mL,–
"Oc1cc(Cl)c2cc1C/C=C(/Cl)Cc1cc(O)c(c(O)c1Br)Oc1cc(c(O)cc1Cl)C/C=C(/Cl)Cc1cc(O)c(c(O)c1)O2 [Compound 8, chrysophaentin 8]",–,–,4 to 6 µg/mL,> 25 µg/mL,~9.5 µg/mL,–,–,4 to 6 µg/mL,–,–,–,–,–,–,–,–,–,–
"COC(=O)Nc1nc2ccc(C(=O)c3cccs3)cc2[nH]1 [nocodazole, reference compound]",–,–,–,–,–,–,–,–,–,–,–,–,–,–,–,–,–,12 min⁻¹
"CC(=O)O[C@H]1C(=O)[C@@]2(C)[C@H]([C@H](OC(=O)c3ccccc3)[C@]3(O)C[C@H](OC(=O)[C@H](O)[C@@H](NC(=O)c4ccccc4)c4ccccc4)C(C)=C1C3(C)C)[C@]1(OC(C)=O)CO[C@@H]1C[C@@H]2O [paclitaxel, reference compound]",–,–,–,–,–,–,–,–,–,–,–,–,–,–,–,–,–,80 min⁻¹
